ChEMBL document CHEMBL1201862, “PubChem BioAssay data set” (2004)
Calls of active or inactive are those of the source.

Experiments:
[1] = target: NAD-dependent protein deacylase sirtuin-5, mitochondrial (Homo sapiens, UniProt Q9NXA8); assay: SIRT5 desuccinylase inhibitors, dose response, biochemical, fluorescence imaging, cherry-pick, set 5 (AID 720591);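 further: desuccinylation of succinyl peptide AMC substrate read as fluorescence after trypsin release; potency of inhibitors that lower fluorescence and may act on trypsin instead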
Cytochrome P450 3A4 = Cytochrome P450 3A4 (Homo sapiens, UniProt P08684);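 further: CYP3A4 tested as one member of a cytochrome P450 panel screen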
[2] = cytotoxicity in A549 cells, dose response, cytotoxicity control, cell-based, CellTiter-Glo luminescence, cherry-pick (AID 743484); assay type: functional
[3] = HeLa 4N DNA content increase, dose response, cell-based, IC50 (AID 1117351); assay type: functional
[4] = HeLa 2N DNA content increase, dose response, cell-based, IC50 (AID 1117349); assay type: functional
[5] = A549 cell cytotoxicity, dose response, cytotoxicity control, plate reader, cherry-pick, antagonist series (AID 743412); assay type: functional, cell-based
[6] = inhibitors of fibronectin matrix deposition, dose response, AH1F cells, Alexa488-FN fluorescence, cherry-picks (AID 1035475); assay type: functional, cell-based
[7] = LGR2 antagonists, dose response, cell-based, HEK293, CRE-luciferase reporter, cherry pick, set 2 (AID 743343); assay type: functional;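 further: transfected cells were stimulated with diluted bursicon conditioned medium after compound addition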
[8] = HepG2 cell cytotoxicity, dose response, cytotoxicity control, cherry-picks, set 5 (AID 1053118); assay type: functional, cell-based
[9] = HEK293 cell cytotoxicity, dose response, cytotoxicity control, plate reader, cherry-picked samples (AID 743446); assay type: functional, cell-based
[10] = A549 cell cytotoxicity, dose response, cytotoxicity control, cherry-picks, 26 µM top dose (AID 1053119); assay type: functional, cell-based
[11] = HEK293 cell cytotoxicity, dose response, cytotoxicity control, cherry-picks, set 5 (AID 1053117); assay type: functional, cell-based
[12] = MC4R antagonists, dose response, counter-screen for LGR2 antagonist project, cell-based, plate reader, cherry pick (AID 743444); assay type: functional;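 further: transfected HEK 293 cells stimulated with alpha-MSH peptide; potency of inhibitors of the alpha-MSH evoked signal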
[13] = inhibitors of Vif binding to APOBEC3G peptide, primary screen, biochemical, TR-FRET, GST-Vif 1-94, biotin-A3G peptide, dose response retest (AID 1117319); assay type: functional;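 further: TR-FRET signal of purified GST-Vif binding a biotinylated A3G peptide; inhibitors lower the FRET signal by blocking Vif and A3G binding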
[14] = target: Glutathione-S-transferase (Schistosoma japonicum, UniProt Q26513); assay: biotin-GST/anti-GST TR-FRET signal inhibitors, dose response, artefact control for Vif-APOBEC3G degradation inhibitor project, biochemical (AID 1117362); assay type: functional
[15] = target: Disintegrin and metalloproteinase domain-containing protein 17 (Homo sapiens, UniProt P78536); assay: exosite inhibitors of ADAM17, dose response, biochemical (AID 743260)
[16] = ADAM10 protease inhibitors, dose response, selectivity assay for ADAM17 exosite inhibitor project, biochemical, FRET peptide substrate, recombinant human ADAM10 (AID 743259);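 further: ADAM10 enzyme cleaving a FRET peptide substrate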
[17] = cytotoxicity toward HCT116 cells – cell-based, CellTiter-Glo luminescence, IC50, dose response (AID 1117332); assay type: functional; conditions: HCT-116
[18] = cytotoxicity toward Colo320 cells – cell-based, CellTiter-Glo luminescence, IC50, dose response (AID 1117334); assay type: functional; conditions: COLO 320
[19] = microbe, parasite or virus in culture; assay type: functional; conditions: Mycobacterium tuberculosis
[20] = target: Heat shock protein HSP 90-alpha (Homo sapiens, UniProt P07900); assay type: functional, organism-based
[21] = RKO cell viability reduction, dose response, CellTiter-Glo luminescence (AID 1117322); assay type: functional
[22] = half-maximal inhibitory concentration for glucagon-like peptide-1 release, STC-1 cell line, dose-response (AID 1117345); assay type: functional, cell-based
[23] = CellTiter-Glo luminescent dose response of DLD-1 viability loss (AID 1117352); assay type: functional
[24] = target: T1, Ubiquitin-conjugating enzyme E2 N (Homo sapiens, UniProt P61088); assay type: functional;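 further: Dose-response confirmation in a TR-FRET assay detecting UBC13-driven polyubiquitin chain formation, inhibition measured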
T1 sequence (P61088 whole entry): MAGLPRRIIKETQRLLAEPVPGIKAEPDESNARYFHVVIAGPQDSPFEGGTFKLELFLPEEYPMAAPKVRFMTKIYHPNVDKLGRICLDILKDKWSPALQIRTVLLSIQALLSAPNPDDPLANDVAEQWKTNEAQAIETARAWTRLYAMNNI

[25] = Concentration-dependent survival of SW480 colon cancer line, luminescence detection with CellTiter-Glo, half-maximal inhibitory concentration (AID 1117338); assay type: functional
[26] = HCT116 cell viability decrease, GSK3B pretreatment – CellTiter-Glo, IC50, dose response (AID 1117339); assay type: functional; conditions: HCT-116
[27] = SNU-C1 cell viability reduction, dose response, CellTiter-Glo luminescence (AID 1117323); assay type: functional, cell-based
[28] = cytotoxicity toward HT-29 cells – cell-based, CellTiter-Glo luminescence, IC50, dose response (AID 1117330); assay type: functional
[29] = Glucagon-like peptide 1 release potency, NCI-H716 cell line, dose-response, half-maximal inhibitory concentration (AID 1117344); assay type: functional, cell-based
[30] = CTGF mRNA reduction under YAP1 overexpression, dose response, mechanism study for YAP1 pathway inhibitor project, DLD1 cells, RT-qPCR, cherry-pick (AID 1053127); assay type: functional, cell-based; conditions: DLD-1

Chain of Disintegrin and metalloproteinase domain-containing protein 17 (P78536 whole entry, the tested form may be a part): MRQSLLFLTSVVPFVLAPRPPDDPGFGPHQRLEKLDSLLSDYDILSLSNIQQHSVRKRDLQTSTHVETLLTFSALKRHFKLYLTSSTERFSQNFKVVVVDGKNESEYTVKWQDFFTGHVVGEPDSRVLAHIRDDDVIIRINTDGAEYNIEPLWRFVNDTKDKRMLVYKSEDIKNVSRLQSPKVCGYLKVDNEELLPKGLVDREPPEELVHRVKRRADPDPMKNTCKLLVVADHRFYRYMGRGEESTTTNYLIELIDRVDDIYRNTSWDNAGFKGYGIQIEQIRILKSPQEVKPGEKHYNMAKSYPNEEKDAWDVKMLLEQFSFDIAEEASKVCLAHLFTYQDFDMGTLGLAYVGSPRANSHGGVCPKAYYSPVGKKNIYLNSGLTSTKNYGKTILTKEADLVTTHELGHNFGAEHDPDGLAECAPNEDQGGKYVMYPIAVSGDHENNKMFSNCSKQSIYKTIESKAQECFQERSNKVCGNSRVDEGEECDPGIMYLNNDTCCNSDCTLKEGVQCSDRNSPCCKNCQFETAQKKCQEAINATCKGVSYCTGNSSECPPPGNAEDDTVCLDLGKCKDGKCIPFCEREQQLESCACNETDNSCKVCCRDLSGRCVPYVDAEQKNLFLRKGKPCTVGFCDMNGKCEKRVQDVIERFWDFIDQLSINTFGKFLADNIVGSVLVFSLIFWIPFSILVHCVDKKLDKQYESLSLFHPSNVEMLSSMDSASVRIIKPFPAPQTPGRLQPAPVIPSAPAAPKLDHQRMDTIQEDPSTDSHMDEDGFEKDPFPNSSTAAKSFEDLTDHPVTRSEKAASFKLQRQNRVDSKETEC
Chain of Cytochrome P450 3A4 (P08684 whole entry): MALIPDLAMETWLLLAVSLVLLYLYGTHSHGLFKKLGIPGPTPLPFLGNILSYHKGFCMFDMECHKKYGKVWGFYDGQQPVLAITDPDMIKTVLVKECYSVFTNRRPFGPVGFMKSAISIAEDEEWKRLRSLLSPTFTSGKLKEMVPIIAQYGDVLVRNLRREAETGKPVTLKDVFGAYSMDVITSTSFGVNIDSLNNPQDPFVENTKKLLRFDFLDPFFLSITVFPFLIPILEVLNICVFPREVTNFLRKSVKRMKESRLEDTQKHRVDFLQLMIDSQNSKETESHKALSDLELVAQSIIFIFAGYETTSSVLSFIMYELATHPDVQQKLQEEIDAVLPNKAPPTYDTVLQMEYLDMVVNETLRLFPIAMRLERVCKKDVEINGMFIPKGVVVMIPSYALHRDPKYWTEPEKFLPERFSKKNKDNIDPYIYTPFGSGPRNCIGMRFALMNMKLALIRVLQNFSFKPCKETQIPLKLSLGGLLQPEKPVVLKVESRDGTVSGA
Chain of Glutathione-S-transferase (Q26513 whole entry, the tested form may be a part): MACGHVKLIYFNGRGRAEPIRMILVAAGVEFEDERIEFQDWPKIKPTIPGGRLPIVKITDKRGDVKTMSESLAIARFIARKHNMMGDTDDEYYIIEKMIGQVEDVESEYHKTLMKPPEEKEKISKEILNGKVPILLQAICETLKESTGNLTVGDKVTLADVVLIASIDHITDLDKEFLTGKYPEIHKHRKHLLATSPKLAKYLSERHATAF
Chain of NAD-dependent protein deacylase sirtuin-5, mitochondrial (Q9NXA8 whole entry): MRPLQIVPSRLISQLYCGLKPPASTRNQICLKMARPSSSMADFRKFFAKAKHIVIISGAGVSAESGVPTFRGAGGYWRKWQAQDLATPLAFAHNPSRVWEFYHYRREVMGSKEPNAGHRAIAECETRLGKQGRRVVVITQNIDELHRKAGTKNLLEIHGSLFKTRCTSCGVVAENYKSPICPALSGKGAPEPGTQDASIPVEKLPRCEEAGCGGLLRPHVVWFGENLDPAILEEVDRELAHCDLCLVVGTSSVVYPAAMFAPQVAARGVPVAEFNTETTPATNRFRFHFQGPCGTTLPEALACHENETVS

CCc1ccc(N(C(=O)c2csnn2)C(C(=O)NCc2ccccc2)c2ccco2)cc1 (stereo unspecified)
AC50 [1]: > 30 µM (inactive) | AC50 (Cytochrome P450 3A4): 1.41 µM (inconclusive)

CC1(Cc2ccccc2C#N)C(=O)Nc2cc(-c3ccccc3Cl)ccc21 (stereo unspecified)
AC50 [2]: > 52 µM (inactive)

COc1cc(-c2ccc(=O)[nH]n2)ccc1OC(F)F [ZARDAVERINE]
IC50 [3]: > 10 µM (inactive) | IC50 [4]: > 10 µM (inactive)

C[C@@H]1CN([C@@H](C)CO)C(=O)c2cccc(NC(=O)Nc3ccc(C(F)(F)F)cc3)c2O[C@@H]1CN(C)C(=O)Nc1cccc2ccccc12
AC50 [5]: 27.8 µM (active) | AC50 [6]: 12.9 µM (active) | AC50 [7]: 25 µM (active) | AC50 [8]: 10.2 µM (active) | AC50 [9]: > 52 µM (inactive) | AC50 [10]: 12.8 µM (active) | AC50 [11]: 12.7 µM (active) | AC50 [12]: 22.8 µM (active)

CCN1CCN(c2ccc(NC(=O)Cc3ccccc3)cc2)CC1
IC50 [13]: > 100 µM (active) | IC50 [14]: > 100 µM (active)

Cc1cc(Nc2ccc(Cl)cc2)n(-c2cccc(Cl)c2)n1
IC50 [15]: > 69.5 µM (inactive) | IC50 [16]: 21.3 µM (inactive)

Clc1ccc(CCC(Cn2ccnc2)Sc2c(Cl)cccc2Cl)cc1 (stereo unspecified) [BUTOCONAZOLE NITRATE]
IC50 [17]: 2.06 µM (active) | IC50 [18]: 221 nM (active) | CC50 [19]: 37.6 µM (active) | AC50 [20]: < 195 nM (active) | IC50 [21]: 2.3 µM (active) | IC50 [22]: 7 µM (inactive) | IC50 [23]: 1.84 µM (active) | IC50 [24]: > 20 µM (inactive) | IC50 [25]: 1.69 µM (active) | IC50 [26]: 841 nM (active) | IC50 [27]: 996 nM (active) | IC50 [28]: 3.01 µM (active) | IC50 [29]: 16 µM (inactive)

COc1ccccc1C(=O)Nc1ccc2c(c1)C(=O)N(C)C[C@H](OC)[C@@H](C)CN(C(C)=O)[C@@H](C)CO2
AC50 [30]: 8.95 µM (active)
